Data from US11046680B1, “Heteroaryl-substituted triazoles as APJ receptor agonists” (priority 2016, dated 2021).

biological target: human APJ receptor (Homo sapiens (Human), UniProt P35414); test: biochemical; format: biochemical; details: [35S]GTPγS binding, CHO membranes expressing human APJ receptor; read-out: Activity hAPJ SPA EC50 IP
Outline: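 Membranes of a stable CHO line carrying human APJ (pFLAG-CMV-3) were used in a GTPγS binding format; buffer GDP, MgCl2 and NaCl were optimized, and plates were read after 90 min at RT.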

human APJ receptor, sequence (P35414 whole entry): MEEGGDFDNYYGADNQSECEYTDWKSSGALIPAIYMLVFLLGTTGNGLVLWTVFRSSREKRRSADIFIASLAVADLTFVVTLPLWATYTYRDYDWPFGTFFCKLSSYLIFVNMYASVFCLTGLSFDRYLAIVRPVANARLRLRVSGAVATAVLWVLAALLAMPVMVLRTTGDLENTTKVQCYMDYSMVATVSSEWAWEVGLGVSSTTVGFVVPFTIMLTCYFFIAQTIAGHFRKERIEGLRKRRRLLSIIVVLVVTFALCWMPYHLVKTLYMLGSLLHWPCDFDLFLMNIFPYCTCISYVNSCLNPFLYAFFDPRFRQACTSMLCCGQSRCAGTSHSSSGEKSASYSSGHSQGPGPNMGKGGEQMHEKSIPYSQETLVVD

Compound | EC50 [nM]
COc1ccc(N2CCC2=O)cc1-n1c(NS(=O)(=O)CCc2ccc(F)cc2C#N)nnc1-c1cccs1 [Example 132.0, 2-(2-Cyano-4-fluorophenyl)-N-(4-(2-methoxy-5-(2-oxoazetidin-1-yl)phenyl)-5-(thiophen-2-yl)-4H-1,2,4-triazol-3-yl)ethanesulfonamide] | 0.24
COc1cnc([C@@H](C)[C@H](C)S(=O)(=O)Nc2nnc(-c3ccn(C)n3)n2-c2c(OC)ncnc2OC)nc1 [Example 296.0, (2S,3R)-N-(4-(4,6-dimethoxy-5-pyrimidinyl)-5-(1-methyl-1H-pyrazol-3-yl)-4H-1,2,4-triazol-3-yl)-3-(5-methoxy-2-pyrimidinyl)-2-butanesulfonamide] | 2.7
COc1cccc(OC)c1-n1c(NS(=O)(=O)[C@H](C)[C@@H](OC)c2ccc(C#N)cc2C#N)nnc1-c1ccn(C)n1 (single isomer, unassigned) [Example 266.0, (1S,2R)-1-(2,4-dicyanophenyl)-N-(4-(2,6-dimethoxyphenyl)-5-(1-methyl-1H-pyrazol-3-yl)-4H-1,2,4-triazol-3-yl)-1-methoxy-2-propanesulfonamide or (1R,2S)-1-(2,4-dicyanophenyl)-N-(4-(2,6-dimethoxyphenyl)-5-(1-methyl-H-pyrazol-3-yl)-4H-1,2,4-triazol-3-yl)-1-methoxy-2-propanesulfonamide] | 0.4
C=CCO[C@@H](c1ncc(F)cn1)[C@@H](C)S(=O)(=O)Nc1nnc(-c2nc(C)cs2)n1-c1c(OC)cccc1OC (single isomer, unassigned) [Example 168.0, (1S,2R)-1-(Allyloxy)-N-(4-(2,6-dimethoxyphenyl)-5-(4-methylthiazol-2-yl)-4H-1,2,4-triazol-3-yl)-1-(5-fluoropyrimidin-2-yl)propane-2-sulfonamide or (1R,2S)-1-(allyloxy)-N-(4-(2,6-dimethoxyphenyl)-5-(4-methylthiazol-2-yl)-4H-1,2,4-triazol-3-yl)-1-(5-fluoropyrimidin-2-yl)propane-2-sulfonamide] | 30
(R)-N-(4-(2,6-dimethoxyphenyl)-5-(1,5-dimethyl-1H-pyrazol-3-yl)-4H-1,2,4-triazol-3-yl)-1-(5-fluoropyrimidin-2-yl)propane-2-sulfonamide and (S)-N-(4-(2,6-dimethoxyphenyl)-5-(1,5-dimethyl-1H-pyrazol-3-yl)-4H-1,2,4-triazol-3-yl)-1-(5-fluoropyrimidin-2-yl)propane-2-sulfonamide [Example 54.0] | 33
COc1ccc(N2CCOCC2=O)cc1-n1c(NS(=O)(=O)CCc2ccc(Cl)cc2)nnc1-c1cccs1 [Example 127.0, 2-(4-Chlorophenyl)-N-(4-(2-methoxy-5-(3-oxo-4-morpholinyl)phenyl)-5-(2-thiophenyl)-4H-1,2,4-triazol-3-yl)ethanesulfonamide] | 300
COc1cccc(OC)c1-n1c(NS(=O)(=O)CCc2ncc(F)cn2)nnc1-c1nc(C(C)C)cs1 [Example 96.0, N-(4-(2,6-dimethoxyphenyl)-5-(4-isopropylthiazol-2-yl)-4H-1,2,4-triazol-3-yl)-2-(5-fluoropyrimidin-2-yl)ethanesulfonamide] | 7
COc1ccc(C(=O)O)cc1-n1c(NS(=O)(=O)Cc2ccc(Cl)cc2)nnc1-c1cccs1 [Example 384.0, 3-(3-((4-Chlorophenyl)methylsulfonamido)-5-(thiophen-2-yl)-4H-1,2,4-triazol-4-yl)-4-methoxybenzoic acid] | > 12500
COc1cccc(OC)c1-n1c(NS(=O)(=O)[C@@H](C)[C@@H](OC(C)C)c2ncc(F)cn2)nnc1-c1cnn2c1CCC2 [Example 482.0, (1S,2S)-N-(5-(5,6-dihydro-4H-pyrrolo[1,2-b]pyrazol-3-yl)-4-(2,6-dimethoxyphenyl)-4H-1,2,4-triazol-3-yl)-1-(5-fluoropyrimidin-2-yl)-1-isopropoxypropane-2-sulfonamide] | 0.38
COc1cccc(OC)c1-n1c(NS(=O)(=O)CCc2ccc(Cl)cc2)nnc1-c1ncc(C)s1 [Example 143.0, 2-(4-chlorophenyl)-N-(4-(2,6-dimethoxyphenyl)-5-(5-methylthiazol-2-yl)-4H-1,2,4-triazol-3-yl)ethanesulfonamide] | 236
COc1cccc(OC)c1-n1c(NS(=O)(=O)[C@@H](C)[C@@H](OC(C)C)c2ncc(Cl)cn2)nnc1-c1cnn2c1CCC2 [Example 447.0, (1S,2S)-1-(5-chloropyrimidin-2-yl)-N-(5-(5,6-dihydro-4H-pyrrolo[1,2-b]pyrazol-3-yl)-4-(2,6-dimethoxyphenyl)-4H-1,2,4-triazol-3-yl)-1-isopropoxypropane-2-sulfonamide] | 0.12
CO[C@H](c1ncc(Cl)cn1)[C@H](C)S(=O)(=O)Nc1nnc(-c2nn(C)c3c2CCCC3)n1C1CC1 [Example 514.0, (1R,2S)-1-(5-chloropyrimidin-2-yl)-N-(4-cyclopropyl-5-(1-methyl-4,5,6,7-tetrahydro-1H-indazol-3-yl)-4H-1,2,4-triazol-3-yl)-1-methoxypropane-2-sulfonamide] | 19
COc1cccc(OC)c1-n1c(NS(=O)(=O)[C@@H](C)[C@H](OC)c2ncc(C)cn2)nnc1-c1cc(C2CC2)on1 [Example 424.0, (1R,25)-N-(5-(5-cyclopropylisoxazol-3-yl)-4-(2,6-dimethoxyphenyl)-4H-1,2,4-triazol-3-yl)-1-methoxy-1-(5-methylpyrimidin-2-yl)propane-2-sulfonamide] | 21
COCC1(n2c(NS(=O)(=O)[C@@H](C)[C@H](OC)c3ncc(Cl)cn3)nnc2-c2cnn3ccccc23)CC1 [Example 509.0, (1R,2S)-1-(5-chloropyrimidin-2-yl)-1-methoxy-N-(4-(1-(methoxymethyl)cyclopropyl)-5-(pyrazolo[1,5-a]pyridin-3-yl)-4H-1,2,4-triazol-3-yl)propane-2-sulfonamide] | 4.1
(R)-N-(4-(2,6-dimethoxyphenyl)-5-(pyrimidin-2-yl)-4H-1,2,4-triazol-3-yl)-1-(5-fluoropyrimidin-2-yl)propane-2-sulfonamide and (S)-N-(4-(2,6-dimethoxyphenyl)-5-(pyrimidin-2-yl)-4H-1,2,4-triazol-3-yl)-1-(5-fluoropyrimidin-2-yl)propane-2-sulfonamide [Example 56.0] | 74
CCS(=O)(=O)Nc1nnc(-c2ccn(C)n2)n1-c1c(OC)cccc1OC [Example 267.0, N-(4-(2,6-dimethoxyphenyl)-5-(1-methyl-1H-pyrazol-3-yl)-4H-1,2,4-triazol-3-yl)ethanesulfonamide] | 82
CCO[C@H](c1ncc(C)cn1)[C@H](C)S(=O)(=O)Nc1nnc(-c2ccn(C(F)F)n2)n1-c1c(OC)cccc1OC [Example 199.0, (1R,2S)-N-(5-(1-(difluoromethyl)-1H-pyrazol-3-yl)-4-(2,6-dimethoxyphenyl)-4H-1,2,4-triazol-3-yl)-1-ethoxy-1-(5-methyl-2-pyrimidinyl)-2-propanesulfonamide] | 0.26
COc1cccc(OC)c1-n1c(NS(=O)(=O)[C@H](C)Cc2ncc(F)cn2)nnc1-c1ncccn1 (single isomer, unassigned) [Example 58.0, (R)-N-(4-(2,6-dimethoxyphenyl)-5-(pyrimidin-2-yl)-4H-1,2,4-triazol-3-yl)-1-(5-fluoropyrimidin-2-yl)propane-2-sulfonamide or (S)-N-(4-(2,6-dimethoxyphenyl)-5-(pyrimidin-2-yl)-4H-1,2,4-triazol-3-yl)-1-(5-fluoropyrimidin-2-yl)propane-2-sulfonamide] | 17
CCn1ccc(-c2nnc(NS(=O)(=O)[C@@H](C)[C@@](O)(c3ncc(C)cn3)C(F)(F)F)n2-c2c(OC)cccc2OC)n1 [Example 390.0, (2S,3R)-N-(4-(2,6-Dimethoxyphenyl)-5-(1-ethyl-1H-pyrazol-3-yl)-4H-1,2,4-triazol-3-yl)-4,4,4-trifluoro-3-hydroxy-3-(5-methylpyrimidin-2-yl)butane-2-sulfonamide and (2S,3S)-N-(4-(2,6-dimethoxyphenyl)-5-(1-ethyl-H-pyrazol-3-yl)-4H-1,2,4-triazol-3-yl)-4,4,4-trifluoro-3-hydroxy-3-(5-methylpyrimidin-2-yl)butane-2-sulfonamide] | 73
COc1cccc(OC)c1-n1c(NS(=O)(=O)[C@@H](C)[C@H](OC)c2ncc(Cl)cn2)nnc1-c1c(C)nc2ccccn12 [Example 428.0, (1R,25)-1-(5-chloropyrimidin-2-yl)-N-(4-(2,6-dimethoxyphenyl)-5-(2-methylimidazo[1,2-a]pyridin-3-yl)-4H-1,2,4-triazol-3-yl)-1-methoxypropane-2-sulfonamide] | 120
Cn1ccc(-c2nnc(NS(=O)(=O)[C@@H]3C[C@H](O)CN(c4ncc(F)cn4)C3)n2-c2c(F)cccc2F)n1 (single isomer, unassigned) [Example 299.0, (3R,5S)-N-(4-(2,6-difluorophenyl)-5-(1-methyl-1H-pyrazol-3-yl)-4H-1,2,4-triazol-3-yl)-1-(5-fluoro-2-pyrimidinyl)-5-hydroxy-3-piperidinesulfonamide or (3S,5R)-N-(4-(2,6-difluorophenyl)-5-(1-methyl-1H-pyrazol-3-yl)-4H-1,2,4-triazol-3-yl)-1-(5-fluoro-2-pyrimidinyl)-5-hydroxy-3-piperidinesulfonamide] | 520
COc1cccc(OC)c1-n1c(NS(=O)(=O)[C@@H](C)[C@H](OC)c2ncc(Cl)cn2)nnc1-c1cc(C)[nH]n1 [Example 344.0, (1R,2S)-1-(5-chloro-2-pyrimidinyl)-N-(4-(2,6-dimethoxyphenyl)-5-(5-methyl-1H-pyrazol-3-yl)-4H-1,2,4-triazol-3-yl)-1-methoxy-2-propanesulfonamide] | 0.63
COc1cccc(OC)c1-n1c(NS(=O)(=O)CCc2ncc(C)cn2)nnc1-c1nc(C)cs1 [Example 10.0, N-(4-(2,6-dimethoxyphenyl)-5-(4-methyl-1,3-thiazol-2-yl)-4H-1,2,4-triazol-3-yl)-2-(5-methyl-2-pyrimidinyl)ethanesulfonamide] | 8.4
